From patent US11130756B2, “[1,2,4]Triazolo[4,3-A]pyridinyl substituted indole compounds” (BRISTOL-MYERS SQUIBB COMPANY, priority 2017, dated 2021)
pIC50: −log10 of the molar value.

Legend:
Type in all cases: cell-based
human TLR7 = target: T1, human TLR7 (Homo sapiens, UniProt Q9NYK1); experiment: TLR7 inhibition reporter assay (HEK-Blue, SEAP); settings: HEK-Blue cells overexpressing human TLR7, gardiquimod 7.5 μM, 22 hour incubation
T1 construct: host or cells: HEK-Blue cells
T1 sequence (Q9NYK1 27-1049): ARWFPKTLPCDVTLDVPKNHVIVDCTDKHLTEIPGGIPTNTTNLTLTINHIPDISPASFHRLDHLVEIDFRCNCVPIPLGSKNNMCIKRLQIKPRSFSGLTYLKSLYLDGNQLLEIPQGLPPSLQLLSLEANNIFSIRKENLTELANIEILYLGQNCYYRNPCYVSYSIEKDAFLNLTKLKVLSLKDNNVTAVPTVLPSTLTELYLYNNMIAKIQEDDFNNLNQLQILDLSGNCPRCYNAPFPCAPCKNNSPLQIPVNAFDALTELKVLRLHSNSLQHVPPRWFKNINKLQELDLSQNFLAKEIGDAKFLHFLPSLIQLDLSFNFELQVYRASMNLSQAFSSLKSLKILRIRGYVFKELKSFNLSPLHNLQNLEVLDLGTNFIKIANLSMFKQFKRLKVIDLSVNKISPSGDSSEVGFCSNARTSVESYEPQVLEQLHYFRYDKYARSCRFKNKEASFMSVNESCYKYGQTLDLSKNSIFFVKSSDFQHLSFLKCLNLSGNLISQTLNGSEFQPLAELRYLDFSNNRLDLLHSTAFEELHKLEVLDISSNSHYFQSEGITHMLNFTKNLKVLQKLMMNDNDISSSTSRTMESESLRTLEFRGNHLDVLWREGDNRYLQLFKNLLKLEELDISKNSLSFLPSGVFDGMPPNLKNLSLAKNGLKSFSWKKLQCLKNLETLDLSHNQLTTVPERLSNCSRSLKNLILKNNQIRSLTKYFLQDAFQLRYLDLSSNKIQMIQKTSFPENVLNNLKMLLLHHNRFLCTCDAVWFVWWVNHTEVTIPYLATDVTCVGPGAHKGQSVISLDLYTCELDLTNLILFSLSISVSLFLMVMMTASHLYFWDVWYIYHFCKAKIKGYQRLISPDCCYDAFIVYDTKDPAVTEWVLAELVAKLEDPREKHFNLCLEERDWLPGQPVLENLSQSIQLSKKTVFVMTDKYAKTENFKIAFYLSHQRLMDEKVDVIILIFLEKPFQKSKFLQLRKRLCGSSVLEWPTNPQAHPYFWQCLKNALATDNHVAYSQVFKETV
Method in brief: (§1)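 Compound treatment: 30 min, RT, 0.05 nM–50 μM final. Agonist: TLR7 gardiquimod 7.5 μM; TLR8 R848 15.9 μM; TLR9 ODN2006 5 nM. Incubation 22 h, 37 °C, 5% CO2. Readout SEAP, HEK-Blue Detection.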

human TLR8 = target: T2, human TLR8 (Homo sapiens, UniProt Q9NR97); experiment: TLR8 inhibition reporter assay (HEK-Blue, SEAP); settings: HEK-Blue cells overexpressing human TLR8, R848 15.9 μM, 22 hour incubation
T2 construct: host or cells: HEK-Blue cells
T2 sequence (Q9NR97 27-1041): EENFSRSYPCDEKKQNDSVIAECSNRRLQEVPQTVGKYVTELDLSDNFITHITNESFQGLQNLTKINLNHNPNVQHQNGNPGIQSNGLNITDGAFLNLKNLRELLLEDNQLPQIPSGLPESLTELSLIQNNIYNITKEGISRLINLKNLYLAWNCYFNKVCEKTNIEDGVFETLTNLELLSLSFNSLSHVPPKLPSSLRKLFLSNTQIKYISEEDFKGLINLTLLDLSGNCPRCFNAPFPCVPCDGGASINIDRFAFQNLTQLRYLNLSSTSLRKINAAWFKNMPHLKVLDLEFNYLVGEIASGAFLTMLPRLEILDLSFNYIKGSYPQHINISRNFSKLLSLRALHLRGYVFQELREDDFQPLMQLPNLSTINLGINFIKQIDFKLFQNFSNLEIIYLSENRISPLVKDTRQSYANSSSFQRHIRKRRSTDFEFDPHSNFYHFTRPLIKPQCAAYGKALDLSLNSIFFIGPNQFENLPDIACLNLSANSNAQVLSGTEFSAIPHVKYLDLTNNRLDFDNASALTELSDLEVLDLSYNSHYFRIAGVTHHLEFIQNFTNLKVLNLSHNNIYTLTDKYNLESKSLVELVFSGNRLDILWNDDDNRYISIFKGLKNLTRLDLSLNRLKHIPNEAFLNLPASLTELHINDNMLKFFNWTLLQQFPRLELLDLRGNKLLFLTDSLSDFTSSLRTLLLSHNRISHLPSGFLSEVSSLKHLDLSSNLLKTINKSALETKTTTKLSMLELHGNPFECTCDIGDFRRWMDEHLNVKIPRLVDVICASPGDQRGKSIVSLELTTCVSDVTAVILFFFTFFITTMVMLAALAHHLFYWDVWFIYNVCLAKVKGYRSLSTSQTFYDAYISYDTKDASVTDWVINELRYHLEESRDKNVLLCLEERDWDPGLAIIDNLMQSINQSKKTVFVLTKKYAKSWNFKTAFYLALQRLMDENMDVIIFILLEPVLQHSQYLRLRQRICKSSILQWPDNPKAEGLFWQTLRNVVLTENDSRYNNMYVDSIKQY
Method in brief: as §1

human TLR9 = target: T3, human TLR9 (Homo sapiens, UniProt Q9NR96); experiment: TLR9 inhibition reporter assay (HEK-Blue, SEAP); settings: HEK-Blue cells overexpressing human TLR9, ODN2006 5 nM, 22 hour incubation
T3 construct: host or cells: HEK-Blue cells
T3 sequence (Q9NR96 26-1032): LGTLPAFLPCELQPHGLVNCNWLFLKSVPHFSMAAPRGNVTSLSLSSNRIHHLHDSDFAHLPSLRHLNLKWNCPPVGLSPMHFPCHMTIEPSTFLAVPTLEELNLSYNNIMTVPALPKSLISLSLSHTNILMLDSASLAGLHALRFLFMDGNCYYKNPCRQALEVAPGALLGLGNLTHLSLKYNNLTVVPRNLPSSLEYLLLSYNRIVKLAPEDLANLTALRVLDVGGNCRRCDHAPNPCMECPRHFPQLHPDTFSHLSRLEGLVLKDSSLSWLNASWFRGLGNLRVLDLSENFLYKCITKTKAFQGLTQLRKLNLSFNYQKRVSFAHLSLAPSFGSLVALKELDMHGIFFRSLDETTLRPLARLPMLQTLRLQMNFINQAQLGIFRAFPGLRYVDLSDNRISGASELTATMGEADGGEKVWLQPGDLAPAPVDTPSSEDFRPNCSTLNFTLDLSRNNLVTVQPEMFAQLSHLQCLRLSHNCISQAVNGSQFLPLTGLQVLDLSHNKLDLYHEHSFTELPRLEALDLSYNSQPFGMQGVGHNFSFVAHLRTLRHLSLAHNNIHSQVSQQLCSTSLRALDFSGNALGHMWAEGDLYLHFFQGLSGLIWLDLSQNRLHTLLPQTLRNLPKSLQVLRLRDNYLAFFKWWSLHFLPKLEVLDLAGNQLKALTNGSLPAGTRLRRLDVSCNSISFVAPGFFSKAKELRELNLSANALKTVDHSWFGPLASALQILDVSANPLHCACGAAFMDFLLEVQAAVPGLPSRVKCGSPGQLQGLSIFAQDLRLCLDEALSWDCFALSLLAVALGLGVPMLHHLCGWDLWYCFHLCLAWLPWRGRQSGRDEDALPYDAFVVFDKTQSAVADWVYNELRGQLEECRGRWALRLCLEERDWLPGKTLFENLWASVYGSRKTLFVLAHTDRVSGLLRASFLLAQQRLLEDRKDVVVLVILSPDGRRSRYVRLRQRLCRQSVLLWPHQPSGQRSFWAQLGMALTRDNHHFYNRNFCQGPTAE
Method in brief: as §1

Row | Structure (SMILES) | pIC50 (human TLR7) | pIC50 (human TLR8) | pIC50 (human TLR9)
1 | Cc1c(-c2[nH]c3ccc(C4CCN(CCN5CCCS5(=O)=O)CC4)cc3c2C(C)C)cn2cnnc2c1C [Example 52, 2-(2-(4-(2-(7,8-dimethyl-[1,2,4]triazolo[4,3-a]pyridin-6-yl)-3-isopropyl-1H-indol-5-yl)piperidin-1-yl)ethyl)isothiazolidine 1,1-dioxide] | 8.82 | 8.24 | 5.89
2 | Cc1c(-c2[nH]c3ccc(C4CCN(CCN5CCCS5(=O)=O)CC4)cc3c2C(C)C)cn2cnnc2c1Cl [Example 53, 2-(2-(4-(2-(8-chloro-7-methyl-[1,2,4]triazolo[4,3-a]pyridin-6-yl)-3-isopropyl-1H-indol-5-yl)piperidin-1-yl)ethyl) isothiazolidine 1,1-dioxide] | 9.05 | 8.00 | 6.25
3 | COc1cc(-c2[nH]c3ccc(C4CCN(CC(=O)N(C)C)CC4)cc3c2C(C)C)cn2cnnc12 [Example 54, 2-(4-(3-isopropyl-2-(8-methoxy-[1,2,4]triazolo[4,3-a]pyridin-6-yl)-1H-indol-5-yl)piperidin-1-yl)-N,N-dimethylacetamide] | 8.72 | 7.71 | 7.00
4 | COc1cc(-c2[nH]c3ccc(C4CCN(CCCC(F)(F)F)CC4)cc3c2C(C)C)cn2cnnc12 [Example 55, 6-(3-isopropyl-5-(1-(4,4,4-trifluorobutyl)piperidin-4-yl)-1H-indol-2-yl)-8-methoxy-[1,2,4]triazolo[4,3-a] pyridine] | 9.05 | 7.97 | 5.96
5 | Cc1c(-c2[nH]c3ccc(C4CCN(CCN5CCOC5=O)CC4)cc3c2C(C)C)cn2cnnc2c1C [Example 56, 3-(2-(4-(2-(7,8-dimethyl-[1,2,4]triazolo[4,3-a]pyridin-6-yl)-3-isopropyl-1H-indol-5-yl)piperidin-1-yl)ethyl)oxazolidin-2-one] | 9.30 | 8.10 | 6.71
6 | Cc1c(-c2[nH]c3ccc(C4CCN(CCN5CCCC5=O)CC4)cc3c2C(C)C)cn2cnnc2c1C [Example 57, 1-(2-(4-(2-(7,8-dimethyl-[1,2,4]triazolo[4,3-a]pyridin-6-yl)-3-isopropyl-1H-indol-5-yl)piperidin-1-yl)ethyl) pyrrolidin-2-one] | 8.30 | 7.89 | 5.88
7 | Cc1cc(-c2[nH]c3ccc(C4CCN(C5COC5)CC4)cc3c2C(C)C)cn2cnnc12 [Example 63, 6-(3-isopropyl-5-(1-(oxetan-3-yl)piperidin-4-yl)-1H-indol-2-yl)-8-methyl-[1,2,4]triazolo[4,3-a]pyridine] | 8.77 | 8.12 | 4.96
8 | CC(C)c1c(-c2ccc3nncn3c2)[nH]c2ccc(C3CCN(C4CCOCC4)CC3)cc12 [Example 64, 6-(3-isopropyl-5-(1-(tetrahydro-2H-pyran-4-yl)piperidin-4-yl)-1H-indol-2-yl)-[1,2,4]triazolo[4,3-a]pyridine] | 7.61 | 6.83 | 6.17
9 | CC(C)c1c(-c2ccc3nncn3c2)[nH]c2ccc(C3CCN(C4COC4)CC3)cc12 [Example 65, 6-(3-isopropyl-5-(1-(oxetan-3-yl)piperidin-4-yl)-1H-indol-2-yl)-[1,2,4]triazolo[4,3-a]pyridine] | 7.66 | 6.47 | 4.82
10 | Cc1cc2nncn2cc1-c1[nH]c2ccc(C3CCN(C4COC4)CC3)cc2c1C(C)C [Example 66, 6-(3-isopropyl-5-(1-(oxetan-3-yl)piperidin-4-yl)-1H-indol-2-yl)-7-methyl-[1,2,4]triazolo[4,3-a]pyridine] | 7.26 | 5.99 | 4.73

The next lines start with the values.

Row | pIC50 (human TLR7) | pIC50 (human TLR8) | pIC50 (human TLR9) | Structure (SMILES)
11 | 9.10 | 9.05 | 5.76 | Cc1cc(-c2[nH]c3ccc(C4CCN(CC(C)(C)O)CC4)cc3c2C(C)C)cn2cnnc12 [Example 58, 1-(4-(3-isopropyl-2-(8-methyl-[1,2,4]triazolo[4,3-a]pyridin-6-yl)-1H-indol-5-yl)piperidin-1-yl)-2-methylpropan-2-ol]
12 | 7.09 | 8.51 | 5.46 | Cc1cc(-c2[nH]c3ccc(C4CCN(CC(C)(C)O)CC4)cc3c2C(C)C)c(C)n2cnnc12 [Example 59, 1-(4-(2-(5,8-dimethyl-[1,2,4]triazolo[4,3-a]pyridin-6-yl)-3-isopropyl-1H-indol-5-yl)piperidin-1-yl)-2-methylpropan-2-ol]
13 | 8.77 | 8.37 | 5.54 | Cc1c(-c2[nH]c3ccc(C4CCN(CC(C)(C)O)CC4)cc3c2C(C)C)cn2cnnc2c1C [Example 60, 1-(4-(2-(7,8-dimethyl-[1,2,4]triazolo[4,3-a]pyridin-6-yl)-3-isopropyl-1H-indol-5-yl)piperidin-1-yl)-2-methylpropan-2-ol]
14 | 9.05 | 8.34 | 5.64 | Cc1c(-c2[nH]c3ccc(C4CCN(CC(C)(C)O)CC4)cc3c2C(C)C)cn2cnnc2c1Cl [Example 61, 1-(4-(2-(8-chloro-7-methyl-[1,2,4]triazolo [4,3-a]pyridin-6-yl)-3-isopropyl-1H-indol-5-yl)piperidin-1-yl)-2-methylpropan-2-ol]
